Measurements taken from PubChem BioAssay AID1117287 (Broad Institute, 2014).
The source made the active and inactive calls.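 How the source made its calls: active means inhibitor whose half-maximal potency stays within twice the top tested dose in every replicate test; inconclusive means mixed calls across tests, weak flat response, or poor curve fit; inactive means all tests inactive, including rising signal.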

Target: Endoplasmic reticulum aminopeptidase 1 (Homo sapiens) (UniProt Q9NZ08)
Assay: ERAP1 Leu-AMC hydrolysis inhibition – biochemical, fluorescence, dry powder, set 2, dose response (AID 1117287)
Conditions: 60 min

Endoplasmic reticulum aminopeptidase 1 (Homo sapiens), sequence (Q9NZ08 whole entry, looked up): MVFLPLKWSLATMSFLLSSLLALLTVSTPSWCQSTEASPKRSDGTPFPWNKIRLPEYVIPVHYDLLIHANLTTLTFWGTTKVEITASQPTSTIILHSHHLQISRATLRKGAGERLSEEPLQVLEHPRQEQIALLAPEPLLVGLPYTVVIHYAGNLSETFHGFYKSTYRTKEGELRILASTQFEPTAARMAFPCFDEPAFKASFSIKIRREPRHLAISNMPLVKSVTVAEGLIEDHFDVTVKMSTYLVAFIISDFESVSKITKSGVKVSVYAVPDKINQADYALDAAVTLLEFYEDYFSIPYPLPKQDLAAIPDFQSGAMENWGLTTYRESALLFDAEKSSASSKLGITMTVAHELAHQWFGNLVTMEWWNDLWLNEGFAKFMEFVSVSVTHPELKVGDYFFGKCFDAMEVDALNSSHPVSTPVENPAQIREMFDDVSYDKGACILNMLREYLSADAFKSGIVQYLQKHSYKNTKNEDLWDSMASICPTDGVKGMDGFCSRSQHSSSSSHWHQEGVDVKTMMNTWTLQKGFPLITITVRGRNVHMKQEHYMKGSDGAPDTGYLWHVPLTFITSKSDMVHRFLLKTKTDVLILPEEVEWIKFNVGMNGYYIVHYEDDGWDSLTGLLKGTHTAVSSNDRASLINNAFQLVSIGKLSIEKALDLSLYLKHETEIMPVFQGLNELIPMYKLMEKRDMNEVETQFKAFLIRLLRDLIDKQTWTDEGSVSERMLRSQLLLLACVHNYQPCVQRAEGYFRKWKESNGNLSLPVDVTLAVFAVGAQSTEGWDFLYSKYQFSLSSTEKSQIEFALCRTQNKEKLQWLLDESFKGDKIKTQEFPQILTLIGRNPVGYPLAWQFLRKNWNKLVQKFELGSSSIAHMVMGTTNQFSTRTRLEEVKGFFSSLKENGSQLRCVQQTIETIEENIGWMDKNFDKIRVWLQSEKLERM

Row | AC50 | SMILES
1 | > 100 µM (inactive) | COc1ccc(C(=O)O)cc1S(=O)(=O)N1CCN(c2ccc(C(F)(F)F)cc2N)CC1
2 | > 100 µM (inactive) | COc1ccc(C(=O)O)cc1S(=O)(=O)Nc1ccc(N2CCCCC2)cc1C(F)(F)F
3 | > 100 µM (inactive) | COc1ccc(C(=O)O)cc1S(=O)(=O)Nc1cccc(N2CCCCC2)c1C(F)(F)F

Same assay, conditions: 60 min, at 26 µM (top of the series)

Row | activity change, negative = inhibition | SMILES
4 | inactive | O=S(=O)(O)c1ccc(N2N=C(c3ccccc3)CC2c2ccccc2)cc1 (stereo not drawn)

Same assay, conditions: 60 min, at 26 µM (top of the series), above what the read-out allows, likely interference

Row | activity change, negative = inhibition | SMILES
5 | inactive | COc1ccc(C2=NN(c3ccc(C(=O)O)cc3)C(c3ccc(OC)c(OC)c3)C2)cc1 (stereo not drawn)

Same assay, conditions: 60 min, at 50 µM (top of the series)

Row | activity change, negative = inhibition | SMILES
6 | inactive | O=C(O)c1cc(F)cc(S(=O)(=O)Nc2cc(C(F)(F)F)ccc2N2CCCCC2)c1
7 | inactive | Cc1ccc(C(=O)O)cc1S(=O)(=O)Nc1cc(C(F)(F)F)ccc1N1CCCCC1
8 | inactive | Cc1ccc(S(=O)(=O)Nc2cc(C(F)(F)F)ccc2N2CCCCC2)cc1C(=O)O
9 | inactive | COc1ccc(C(=O)O)cc1S(=O)(=O)Nc1cc(C(F)(F)F)ccc1N1CCOCC1
10 | inactive | COc1ccc(C(=O)O)cc1S(=O)(=O)Nc1cc(C(F)(F)F)ccc1N1CCCCC1
11 | inactive | COc1ccc(C(=O)O)cc1S(=O)(=O)Nc1cc(C(F)(F)F)ccc1N(C)C
12 | inactive | COc1ccc(C(=O)O)cc1S(=O)(=O)Nc1cc(C(F)(F)F)ccc1N1CCN(C(C)=O)CC1
13 | inactive | COc1ccc(C(=O)Nc2cccc(C(F)(F)F)c2)cc1S(=O)(=O)O
